{"source": "patent US10441663B2", "about": "“Methods for treating cancer” (Bicycle Therapeutics Limited, priority 2016, dated 2019)", "system": "SNU-16 xenograft", "experiment": "In vivo efficacy of BT1718 in SNU-16 xenograft", "design": "species or system Mus Musculus; key to Best response at 10 mg/kg: CR complete response; PR partial response", "procedure": "The objective of this study was to evaluate the in vivo anti-tumor efficacy of BT1718in treatment of HT1080, NCI-H292, NCI-H1975, MDA-MB-231, HCC1806, RPMI2650, HCT-15, HT-29 and SNU-16 xenograft in BALB/c nude mice.\nThe HT1080, NCI-H292, NCI-H1975, MDA-MB-231, HCC1806, RPMI2650, HCT-15, HT-29 and SNU-16 tumor cells were maintained in vitro as a monolayer culture in medium supplemented with 10% heat inactivated fetal bovine serum at 37° C. in an […]. The tumor cells will be routinely subcultured twice weekly by trypsin-EDTA treatment. The cells growing in an exponential growth phase will be harvested and counted for tumor inoculation.\nMouse was inoculated subcutaneously at the right flank with tumor cells for tumor development. The animals were randomized and treatment was started when the average tumor reaches certain volume for the efficacy study, the inoculating cell amounts and starting tumor size were shown as below in Table 9. The test article administration and the animal numbers in each group were shown in the experimental design in Table 10.\nAll the procedures related to animal handling, care and the treatment in the study were performed according to the guidelines of the Association for Assessment and Accreditation of Laboratory Animal Care (AAALAC). At the time of routine monitoring, the animals were daily checked for any effects of tumor growth and treatments on normal behavior such as mobility, food and water consumption (by looking only), body weight gain/loss (body weights were measured every day), eye/hair matting and any other abnormal effect as stated in the protocol. Death and observed clinical signs were recorded on the basis of the numbers of animals within each subset.\nThe major endpoint was to see if the tumor growth could be delayed or mice could be cured. Tumor size was measured three times weekly in two dimensions using a caliper, and the volume was expressed in mm^3 using the formula: V=0.5 a×b^2 where a and b are the long and short diameters of the tumor, respectively. The tumor size was then used for calculations of T/C value. The T/C value (in percent) is an indication of antitumor effectiveness; T and C are the mean volumes of the treated and control groups, respectively, on a given day.\nTGI was calculated for each group using the formula: TGI (%)=[1−(Ti−T0)/(Vi−V0)]×100; Ti is the average tumor volume of a treatment group on a given day, T0 is the average tumor volume of the treatment group on the day of treatment start, Vi is the average tumor volume of the vehicle control group on the same day with Ti, and V0 is the average tumor volume of the vehicle group on the day of treatment start.\nSummary statistics, including mean and the standard error of the mean (SEM), are provided for the tumor volume of each group at each time point.\nStatistical analysis of difference in tumor volume among the groups was conducted on the data obtained at the best therapeutic time point after the final dose.\nA one-way ANOVA was performed to compare tumor volume among groups, and when a significant F-statistics (a ratio of treatment variance to the error variance) was obtained, comparisons between groups were carried out with Games-Howell test. All data were analyzed using Prism. P<0.05 was considered to be statistically significant.", "note": "*1 amine or outer side, *2 acyl side, *3 side chain or, on linkers, in order; H or OH if unused. Where a SMILES comes first, the peptide text is derived from it. Bridges are numbered along the chain shown (N, C = ends). [ ]: non-standard residue; d: D form. The star is where a group is joined. X1 = COc1cc2cc(c1Cl)N(C)C(=O)C[C@H](OC(=O)[C@H](C)N(C)C(=O)CCSSC(C)CCC(=O)*)[C@]1(C)O[C@H]1[C@H](C)[C@@H]1C[C@@](O)(NC(=O)O1)[C@H](OC)/C=C/C=C(\\C)C2; 1Nal = N[C@@H](Cc1cccc2ccccc12)C(=O)O; TBMB = c1c(C[*:1])cc(C[*:3])cc1C[*:2]; Tle = CC(C)(C)[C@H](N)C(=O)O; βAla = NCCC(=O)O; Sar = CNCC(=O)O"}
{"smiles": "COc1cc2cc(c1Cl)N(C)C(=O)C[C@H](OC(=O)[C@H](C)N(C)C(=O)CCSSC(C)CCC(=O)NCCC(=O)N(C)CC(=O)N(C)CC(=O)N(C)CC(=O)N(C)CC(=O)N(C)CC(=O)N(C)CC(=O)N(C)CC(=O)N(C)CC(=O)N(C)CC(=O)N(C)CC(=O)N[C@@H](C)C(=O)N[C@H]1CSCc3cc4cc(c3)CSC[C@H](NC(=O)[C@@H](C)NC(=O)[C@H](Cc3cccc5ccccc35)NC(=O)[C@H](CCC(=O)O)NC(=O)[C@H](CC(N)=O)NC(=O)[C@@H](C)NC1=O)C(=O)N[C@@H](CCC(=O)O)C(=O)N[C@@H](CC(=O)O)C(=O)N[C@@H](Cc1ccccc1)C(=O)N[C@@H](Cc1ccc(O)cc1)C(=O)N[C@@H](CC(=O)O)C(=O)N[C@@H](C(C)(C)C)C(=O)N[C@H](C(N)=O)CSC4)[C@]1(C)O[C@H]1[C@H](C)[C@@H]1C[C@@](O)(NC(=O)O1)[C@H](OC)/C=C/C=C(\\C)C2", "note": "(stereo partly drawn) [BT1718] ({X1-βAla}-[Sar][Sar][Sar][Sar][Sar][Sar][Sar][Sar][Sar][Sar]AC[dA]NE[1Nal][dA]CEDFYD[Tle]C-NH2; linker 12-18-25 via TBMB (inferred))", "values": [{"measurement": "Body Weight", "setting": "1 mpk biw, day 0", "value": "22.9 ± 0.5", "unit": "g"}, {"measurement": "Tumor Volume", "setting": "1 mpk biw, day 0", "value": "160 ± 24", "unit": "mm^3"}, {"measurement": "Body Weight", "setting": "1 mpk biw, day 2", "value": "22.8 ± 0.5", "unit": "g"}, {"measurement": "Tumor Volume", "setting": "1 mpk biw, day 2", "value": "160 ± 15", "unit": "mm^3"}, {"measurement": "Body Weight", "setting": "1 mpk biw, day 4", "value": "23.0 ± 0.5", "unit": "g"}, {"measurement": "Tumor Volume", "setting": "1 mpk biw, day 4", "value": "140 ± 12", "unit": "mm^3"}, {"measurement": "Body Weight", "setting": "1 mpk biw, day 7", "value": "23.0 ± 0.4", "unit": "g"}, {"measurement": "Tumor Volume", "setting": "1 mpk biw, day 7", "value": "137 ± 13", "unit": "mm^3"}, {"measurement": "Body Weight", "setting": "1 mpk biw, day 9", "value": "22.7 ± 0.5", "unit": "g"}, {"measurement": "Tumor Volume", "setting": "1 mpk biw, day 9", "value": "139 ± 9", "unit": "mm^3"}, {"measurement": "Body Weight", "setting": "1 mpk biw, day 11", "value": "23.0 ± 0.5", "unit": "g"}, {"measurement": "Tumor Volume", "setting": "1 mpk biw, day 11", "value": "142 ± 11", "unit": "mm^3"}, {"measurement": "Body Weight", "setting": "1 mpk biw, day 14", "value": "23.3 ± 0.5", "unit": "g"}, {"measurement": "Tumor Volume", "setting": "1 mpk biw, day 14", "value": "176 ± 9", "unit": "mm^3"}, {"measurement": "Body Weight", "setting": "3 mpk biw, day 0", "value": "22.7 ± 0.3", "unit": "g"}, {"measurement": "Tumor Volume", "setting": "3 mpk biw, day 0", "value": "161 ± 29", "unit": "mm^3"}, {"measurement": "Body Weight", "setting": "3 mpk biw, day 2", "value": "22.1 ± 0.5", "unit": "g"}, {"measurement": "Tumor Volume", "setting": "3 mpk biw, day 2", "value": "115 ± 13", "unit": "mm^3"}, {"measurement": "Body Weight", "setting": "3 mpk biw, day 4", "value": "21.8 ± 0.2", "unit": "g"}, {"measurement": "Tumor Volume", "setting": "3 mpk biw, day 4", "value": "36 ± 4", "unit": "mm^3"}, {"measurement": "Body Weight", "setting": "3 mpk biw, day 7", "value": "21.5 ± 0.3", "unit": "g"}, {"measurement": "Tumor Volume", "setting": "3 mpk biw, day 7", "value": "25 ± 4", "unit": "mm^3"}, {"measurement": "Body Weight", "setting": "3 mpk biw, day 9", "value": "20.0 ± 0.1", "unit": "g"}, {"measurement": "Tumor Volume", "setting": "3 mpk biw, day 9", "value": "18 ± 1", "unit": "mm^3"}, {"measurement": "Body Weight", "setting": "3 mpk biw, day 11", "value": "20.2 ± 0.6", "unit": "g"}, {"measurement": "Tumor Volume", "setting": "3 mpk biw, day 11", "value": "5 ± 3", "unit": "mm^3"}, {"measurement": "Body Weight", "setting": "3 mpk biw, day 14", "value": "20.6 ± 0.6", "unit": "g"}, {"measurement": "Tumor Volume", "setting": "3 mpk biw, day 14", "value": "0 ± 0", "unit": "mm^3"}, {"measurement": "Best response at 10 mg/kg", "setting": "SNU-16, 10 mg/kg", "value": "CR"}, {"measurement": "TGI", "setting": "SNU-16, 1 mpk, biw, day 14", "value": 51.4, "unit": "%"}, {"measurement": "Tumor Volume", "setting": "SNU-16, 1 mpk, biw, day 14", "value": "304 ± 43", "unit": "mm^3"}, {"measurement": "TGI", "setting": "SNU-16, 3 mpk, biw, day 14", "value": 94.5, "unit": "%"}, {"measurement": "Tumor Volume", "setting": "SNU-16, 3 mpk, biw, day 14", "value": "176 ± 9", "unit": "mm^3"}, {"measurement": "TGI", "setting": "SNU-16, 10 mpk, biw, day 14", "value": 155, "unit": "%"}, {"measurement": "Tumor Volume", "setting": "SNU-16, 10 mpk, biw, day 14", "value": "0 ± 0", "unit": "mm^3"}, {"measurement": "Minimally Effective Dose IV BIW", "setting": "SNU-16, dose leading to tumor-stasis", "value": 3, "unit": "mg/kg"}, {"measurement": "dosing suspension until re-growth to 150 mm3", "setting": "after 10 mg/kg biw", "value": 7, "unit": "weeks"}, {"measurement": "tumor response", "setting": "after 2 weeks 10 mg/kg biw", "value": "completely regressed"}, {"measurement": "dosing time until tumor regression on resumed treatment", "setting": "mouse, in vivo", "value": "1-2 weeks"}]}
